Assay results taken from patent publication US9604975B2, “Indolyl-pyridone derivatives having checkpoint kinase 1 inhibitory activity” (Vernalis (R&D) Ltd., priority 2009, dated 2017).

Molecular target: T1, CHK1 (Homo sapiens, UniProt O14757)
T1 construct: His; purchased Invitrogen
T1 sequence (O14757 1-476): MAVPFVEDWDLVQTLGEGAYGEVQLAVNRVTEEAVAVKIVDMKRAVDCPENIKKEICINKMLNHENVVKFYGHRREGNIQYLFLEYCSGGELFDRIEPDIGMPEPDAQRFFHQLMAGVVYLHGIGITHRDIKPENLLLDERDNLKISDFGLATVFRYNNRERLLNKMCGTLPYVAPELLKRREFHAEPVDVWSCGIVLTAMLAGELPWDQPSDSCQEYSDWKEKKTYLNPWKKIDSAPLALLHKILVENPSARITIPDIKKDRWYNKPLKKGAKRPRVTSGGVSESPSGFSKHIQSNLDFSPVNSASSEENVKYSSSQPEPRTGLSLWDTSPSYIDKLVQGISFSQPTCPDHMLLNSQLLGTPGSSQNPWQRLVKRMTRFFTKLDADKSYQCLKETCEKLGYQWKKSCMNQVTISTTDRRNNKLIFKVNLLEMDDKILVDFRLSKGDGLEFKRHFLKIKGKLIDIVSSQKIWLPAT
Experiment: CHK1 Enzyme Assay (phosphorylation of Chktide peptide, 33P-ATP filter assay)
Assay type: biochemical
Conditions: 12.5 nM His-CHK1, 0.01 mM ATP, 40 minutes at 30° C.; read-out: CHK1 Enzyme Activity (IC50 range)
Procedure, shortened: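 His-CHK1 (12.5 nM) phosphorylating 14.8 μM Chktide with 0.01 mM ATP plus 33P-γ-ATP, in 50 mM Hepes-NaOH pH 7.5 with 0.1 mg/mL BSA. Incubated with inhibitor for 40 min at 30 °C. Stopped with phosphoric acid; phosphopeptide captured on filter and counted by scintillation.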

Compound	IC50
CCc1cccc(Cn2cc(C(=O)Nc3c[nH]c(=O)c(-c4cc5cc(OCCN(C)C)ccc5[nH]4)c3)cn2)c1 [Example 128, 1-(3-Ethyl-benzyl)-1H-pyrazole-4-carboxylic acid {5-[5-(2-dimethylamino-ethoxy)-1H-indol-2-yl]-6-oxo-1,6-dihydro-pyridin-3-yl}-amide]	< 100 nM
O=C(Nc1c[nH]c(=O)c(-c2cc3cc(CN4CCC(F)(F)CC4)ccc3[nH]2)c1)c1cnn(Cc2ccccc2)c1 [Example 64, 1-Benzyl-1H-pyrazole-4-carboxylic acid {5-[5-(4,4-difluoro-piperidin-1-ylmethyl)-1H-indol-2-yl]-6-oxo-1,6-dihydro-pyridin-3-yl}-amide]	< 100 nM
CC(C)(COc1ccc2[nH]c(-c3cc(NC(=O)c4cnn(Cc5ccccc5)c4)c[nH]c3=O)cc2c1)CN1CC[C@@H](F)C1 [Example 182, 1-Benzyl-1H-pyrazole-4-carboxylic acid (5-{5-[3-((R)-3-fluoro-pyrrolidin-1-yl)-2,2-dimethyl-propoxy]-1H-indol-2-yl}-6-oxo-1,6-dihydro-pyridin-3-yl)-amide]	< 100 nM
NCCOc1cccc2[nH]c(-c3cc(NC(=O)c4cnn(Cc5ccccc5)c4)c[nH]c3=O)cc12 [Example 158, 1-Benzyl-1H-pyrazole-4-carboxylic acid {5-[4-(2-amino-ethoxy)-1H-indol-2-yl]-6-oxo-1,6-dihydro-pyridin-3-yl}-amide]	< 100 nM
CN1CCN(Cc2cccc3[nH]c(-c4cc(NC(=O)c5cnn(Cc6ccccc6)c5)c[nH]c4=O)cc23)CC1 [Example 107, 1-Benzyl-1H-pyrazole-4-carboxylic acid {5-[4-(4-methyl-piperazin-1-ylmethyl)-1H-indol-2-yl]-6-oxo-1,6-dihydro-pyridin-3-yl}-amide]	< 100 nM
O=C(Nc1cnn(Cc2ccc(F)cc2)c1)c1c[nH]c(=O)c(-c2cc3ccccc3[nH]2)c1 [Example 10, 5-(1H-Indol-2-yl)-6-oxo-1,6-dihydro-pyridine-3-carboxylic acid [1-(4-fluoro-benzyl)-1H-pyrazol-4-yl]-amide]	< 100 nM
Cc1ccc(Cn2cc(NC(=O)c3c[nH]c(=O)c(-c4cc5ccccc5[nH]4)c3)cn2)cc1 [Example 5, 5-(1H-Indol-2-yl)-6-oxo-1,6-dihydro-pyridine-3-carboxylic acid[1-(4-methyl-benzyl)-1H-pyrazol-4-yl]-amide]	100 to 500 nM
CC1CN(Cc2ccc3[nH]c(-c4cc(NC(=O)c5cnn(Cc6ccc(C(C)C)cc6)c5)c[nH]c4=O)cc3c2)CC(C)O1 (stereo not drawn) [Example 72, 1-(4-isopropylbenzyl)-1H-pyrazole-4-carboxylic acid {5-[5-(2,6-dimethylmorpholin-4-ylmethyl)-1H-indol-2-yl)-6-oxo-1,6-dihydropyridin-3-yl}-amide]	< 100 nM
Cc1ccc(Cn2cc(C(=O)Nc3c[nH]c(=O)c(-c4cc5cc(OCCCN6CCOCC6)ccc5[nH]4)c3)cn2)cc1 [Example 117, 1-(4-Methyl-benzyl)-1H-pyrazole-4-carboxylic acid {5-[5-(3-morpholin-4-yl-propoxy)-1H-indol-2-yl]-6-oxo-1,6-dihydro-pyridin-3-yl}-amide]	< 100 nM
O=C(Nc1c[nH]c(=O)c(-c2cc3ccccc3[nH]2)c1)c1cnn(Cc2ccc(Cl)cc2)c1 [Example 28, 1-(4-Chloro-benzyl)-1H-pyrazole-4-carboxylic acid [5-(1H-indol-2-yl)-6-oxo-1,6-dihydro-pyridin-3-yl]-amide]	< 100 nM
CN(C)CCOc1cccc2[nH]c(-c3cc(NC(=O)c4cnn(Cc5ccccc5)c4)c[nH]c3=O)cc12 [Example 159, 1-Benzyl-1H-pyrazole-4-carboxylic acid {5-[4-(2-dimethylamino-ethoxy)-1H-indol-2-yl]-6-oxo-1,6-dihydro-pyridin-3-yl}-amide]	< 100 nM
O=C(Nc1cnn(Cc2ccncc2)c1)c1c[nH]c(=O)c(-c2cc3ccccc3[nH]2)c1 [Example 36, 5-(1H-Indol-2-yl)-6-oxo-1,6-dihydro-pyridine-3-carboxylic acid (1-pyridin-4-ylmethyl-1H-pyrazol-4-yl)-amide]	100 to 500 nM
CC(c1ccc(F)cc1)n1cc(C(=O)Nc2c[nH]c(=O)c(-c3cc4cc(CN5CCN(C)CC5)ccc4[nH]3)c2)cn1 (stereo not drawn) [Example 89, 1-[1-(4-Fluoro-phenyl)-ethyl]-1H-pyrazole-4-carboxylic acid {5-[5-(4-methylpiperazin-1-ylmethyl)-1H-indol-2-yl]-6-oxo-1,6-dihydro-pyridin-3-yl}-amide]	< 100 nM
CN(C)CC1(COc2ccc3[nH]c(-c4cc(NC(=O)c5cnn(Cc6ccccc6)c5)c[nH]c4=O)cc3c2)CC1 [Example 188, 1-Benzyl-1H-pyrazole-4-carboxylic acid {5-[5-(1-dimethylaminomethyl-cyclopropylmethoxy)-1H-indol-2-yl]-6-oxo-1,6-dihydro-pyridin-3-yl}-amide]	< 100 nM
CN(Cc1ccc2[nH]c(-c3cc(NC(=O)c4cnn(Cc5ccc(F)cc5)c4)c[nH]c3=O)cc2c1)C1CCCCC1 [Example 84]	< 100 nM
CC(c1ccccc1)n1cc(C(=O)Nc2c[nH]c(=O)c(-c3cc4ccccc4[nH]3)c2)cn1 (stereo not drawn) [Example 93, 1-(1-Phenylethyl)-1H-pyrazole-4-carboxylic acid [5-(1H-indol-2-yl)-6-oxo-1,6-dihydropyridin-3-yl]-amide]	< 100 nM
CCN(CC)Cc1ccc2[nH]c(-c3cc(NC(=O)c4cnn(Cc5ccc(C)cc5)c4)c[nH]c3=O)cc2c1 [Example 75, 1-(4-Methyl-benzyl)-1H-pyrazole-4-carboxylic acid [5-(5-diethylaminomethyl-1H-indol-2-yl)-6-oxo-1,6-dihydro-pyridin-3-yl]-amide]	< 100 nM
CC(c1ccccc1)n1cc(C(=O)Nc2c[nH]c(=O)c(-c3cc4cc(CN5CCOCC5)ccc4[nH]3)c2)cn1 (stereo not drawn) [Example 86, 1-(1-Phenyl-ethyl)-1H-pyrazole-4-carboxylic acid [5-(5-morpholin-4-ylmethyl-1H-indol-2-yl)-6-oxo-1,6-dihydro-pyridin-3-yl]-amide]	< 100 nM
CCN(CC)CCOc1ccc2[nH]c(-c3cc(NC(=O)c4cnn(Cc5ccc(C(C)C)cc5)c4)c[nH]c3=O)cc2c1 [Example 155, 1-(4-Isopropylbenzyl)-1H-pyrazole-4-carboxylic acid {5-[5-(2-diethylaminoethoxy)-1H-indol-2-yl)-6-oxo-1,6-dihydropyridin-3-yl}-amide]	< 100 nM
CN1CCN(c2ccc3[nH]c(-c4cc(NC(=O)c5cnn(Cc6ccccc6)c5)c[nH]c4=O)cc3c2)CC1 [Example 113, 1-Benzyl-1H-pyrazole-4-carboxylic acid {5-[5-(4-methyl-piperazin-1-yl)-1H-indol-2-yl]-6-oxo-1,6-dihydro-pyridin-3-yl}-amide]	< 100 nM
Cc1cccc(Cn2cc(NC(=O)c3c[nH]c(=O)c(-c4cc5ccccc5[nH]4)c3)cn2)c1 [Example 4, 5-(1H-Indol-2-yl)-6-oxo-1,6-dihydro-pyridine-3-carboxylic acid[1-(3-methyl-benzyl)-1H-pyrazol-4-yl]-amide]	< 100 nM
CCN(CCO)Cc1ccc2[nH]c(-c3cc(NC(=O)c4cnn(Cc5ccccc5)c4)c[nH]c3=O)cc2c1 [Example 56, 1-Benzyl-1H-pyrazole-4-carboxylic acid [5-(5-{[ethyl-(2-hydroxy-ethyl)-amino]-methyl}-1H-indol-2-yl)-6-oxo-1,6-dihydro-pyridin-3-yl]-amide]	< 100 nM
CCc1cccc(Cn2cc(C(=O)Nc3c[nH]c(=O)c(-c4cc5cc(OCCN(CC)CC)ccc5[nH]4)c3)cn2)c1 [Example 130, 1-(3-Ethyl-benzyl)-1H-pyrazole-4-carboxylic acid {5-[5-(2-diethylamino-ethoxy)-1H-indol-2-yl]-6-oxo-1,6-dihydro-pyridin-3-yl}-amide]	< 100 nM
O=C(Nc1c[nH]c(=O)c(-c2cc3cc(CN4CCN(CCO)CC4)ccc3[nH]2)c1)c1cnn(Cc2ccc(Cl)cc2)c1 [Example 66, 1-(4-Chloro-benzyl)-1H-pyrazole-4-carboxylic acid (5-{5-[4-(2-hydroxy-ethyl)-piperazin-1-ylmethyl]-1H-indol-2-yl}-6-oxo-1,6-dihydro-pyridin-3-yl)-amide]	< 100 nM
O=C(Nc1c[nH]c(=O)c(-c2cc3ccccc3[nH]2)c1)c1cnn(CCCc2ccccc2)c1 [Example 94, 1-(3-Phenyl-propyl)-1H-pyrazole-4-carboxylic acid [5-(1H-indol-2-yl)-6-oxo-1,6-dihydro-pyridin-3-yl]-amide]	< 100 nM
O=C(Nc1c[nH]c(=O)c(-c2cc3cc(CNCCO)ccc3[nH]2)c1)c1cnn(Cc2ccc(Cl)cc2)c1 [Example 46, 1-(4-Chloro-benzyl)-1H-pyrazole-4-carboxylic acid (5-{5-[(2-hydroxy-ethylamino)-methyl]-1H-indol-2-yl}-6-oxo-1,6-dihydro-pyridin-3-yl)-amide]	< 100 nM
O=C(Nc1c[nH]c(=O)c(-c2cc3cc(OCCCN4CCCCC4)ccc3[nH]2)c1)c1cnn(Cc2ccccc2)c1 [Example 143, 1-Benzyl-1H-pyrazole-4-carboxylic acid {6-oxo-5-[5-(3-piperidin-1-yl-propoxy)-1H-indol-2-yl]-1,6-dihydro-pyridin-3-yl}-amide]	< 100 nM
